These are literature values, as cited in US8318788B2, “Layered pharmaceutical formulations” (priority 2006, dated 2012).

For series [1] the following is noted: patients presenting primary obesity.

With `NS(=O)(=O)Cc1noc2ccccc12` [Zonisamide], the weight loss entry in series [1] was “significant weight loss”. In the series on carbonic anhydrase, the “inhibitory effect on carbonic anhydrase” value is reported as “weak inhibitory effect”.
Take `Cc1cc2c(s1)Nc1ccccc1N=C2N1CCN(C)CC1` [Olanzapine, 2-methyl-4-(4-methyl-1-piperazinyl)-10H-thieno[2,3-b][1,5]benzodiazepine]: under “in vivo”, the “effect of food on bioavailability” value is given as “not affected by food”, the first pass metabolism entry is “extensive first pass metabolism”, the kinetics entry is given as “linear kinetics” and the “time until steady state plasma concentrations are achieved” value was “about a week”.
Consider `CNCCC(Oc1ccc(C(F)(F)F)cc1)c1ccccc1` (stereo not drawn) [Fluoxetine, N-methyl-3-phenyl-3-[4-(trifluoromethyl)phenoxy]-propan-1-amine], for which, where the note is “in vivo”, the bioavailability entry is given as “approximately 72%” and the physiological half life entry is given as “about 24 hours”. In addition, the plasma protein binding entry (mostly albumin) is “highly bound to plasma proteins”.
